Results published in patent publication US20250320213A1, “Nitrogen-Containing Heterocyclic Compounds” (Pfizer Inc., priority 2024, published 2025).

Key:
STAT6 = biological target: T1, STAT6 (Homo sapiens, UniProt P42226); test: STAT6 Reporter Luciferase Assay (IL-13 stimulated HaCaT keratinocyte NanoLuc reporter cells); type: cell-based; details: IL-13 stimulated HaCaT STAT6 NanoLuc reporter cells; read-out: Reporter EC50
T1 construct: stably transfected HaCaT keratinocyte cell line, which expresses NanoLuc luciferase reporter gene under the transcriptional control of the STAT6 responsive promoter; endogenous in cells; host or cells: HaCaT keratinocyte reporter cell line (stably transfected with a NanoLuc reporter)
T1 sequence (P42226 1-847): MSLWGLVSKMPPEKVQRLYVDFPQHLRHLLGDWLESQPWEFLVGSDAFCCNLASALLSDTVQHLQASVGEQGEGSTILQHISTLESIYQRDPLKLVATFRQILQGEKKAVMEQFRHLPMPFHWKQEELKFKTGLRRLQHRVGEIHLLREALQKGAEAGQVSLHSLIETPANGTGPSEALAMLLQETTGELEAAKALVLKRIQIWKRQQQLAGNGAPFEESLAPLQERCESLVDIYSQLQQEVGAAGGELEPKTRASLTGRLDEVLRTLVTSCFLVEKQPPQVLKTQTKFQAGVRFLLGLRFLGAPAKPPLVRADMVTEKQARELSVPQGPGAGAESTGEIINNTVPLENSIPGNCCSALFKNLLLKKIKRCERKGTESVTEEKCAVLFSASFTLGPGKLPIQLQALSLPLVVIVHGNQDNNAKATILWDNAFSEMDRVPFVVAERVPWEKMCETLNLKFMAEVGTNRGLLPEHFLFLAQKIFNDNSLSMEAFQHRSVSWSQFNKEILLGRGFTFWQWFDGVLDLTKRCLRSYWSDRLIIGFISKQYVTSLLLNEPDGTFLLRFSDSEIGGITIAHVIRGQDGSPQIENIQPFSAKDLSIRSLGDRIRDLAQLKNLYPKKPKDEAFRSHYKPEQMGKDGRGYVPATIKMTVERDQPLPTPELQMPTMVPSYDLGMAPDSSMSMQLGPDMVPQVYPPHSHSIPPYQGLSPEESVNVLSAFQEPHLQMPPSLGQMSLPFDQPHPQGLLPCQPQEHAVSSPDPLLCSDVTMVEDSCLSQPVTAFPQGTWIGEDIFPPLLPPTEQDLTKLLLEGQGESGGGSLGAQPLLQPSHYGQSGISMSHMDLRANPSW
In short: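 Stably transfected HaCaT cells carrying NanoLuc under the STAT6-responsive IL-13Ra2 promoter were pre-treated with compound (11-point, 4-fold series, duplicate) for 2 h at 37 °C, then stimulated with 0.12 nM IL-13 for 4 h. Nano-Glo luminescence was read after 15 min.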

[1] = tested on: CCL17 secretion in peripheral human whole blood; test: Human Whole Blood (HWB) CCL17 TR-FRET Assay (IL-13 stimulated CCL17 secretion); type: cell-based; details: Homo sapiens, 48 h, human whole blood
In short: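 Compounds are titrated (11 points, 3-fold, duplicate) into fresh heparinized human whole blood and held 2 h at 37 °C before IL-13 challenge (10 ng/mL final). After 48 h at 37 °C, serum CCL17 is measured by TR-FRET sandwich assay and IC50 values are calculated.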

Row | EC50 (STAT6) [µM] | IC50 ([1]; IL-13 stimulated) [µM] | IC50 ([1]; 10 ng/mL IL13, 48 hours) [µM] | Structure (SMILES)
1 | 0.813 | 7.55 | – | C[C@H]1CN(c2ncc(-c3nccn3C)cn2)Cc2c(C(=O)NCc3ccc(NC(=O)N(C)C)cc3)nn(C)c21 [Example 502, (S)-N-(4-(3,3-dimethylureido)benzyl)-1,7-dimethyl-5-(5-(1-methyl-1H-imidazol-2-yl)pyrimidin-2-yl)-4,5,6,7-tetrahydro-1H-pyrazolo[4,3-c]pyridine-3-carboxamide]
2 | 0.001 | 0.013 | – | CCOC(=O)Nc1ccc(CNC(=O)c2nn(C(C)C)c3c2CN(c2ncc(C(=O)N(C)C)cn2)C[C@@H]3C)cc1 [Example 503, ethyl (S)-(4-((5-(5-(dimethylcarbamoyl)pyrimidin-2-yl)-1-isopropyl-7-methyl-4,5,6,7-tetrahydro-1H-pyrazolo[4,3-c]pyridine-3-carboxamido)methyl)phenyl)carbamate]
3 | 0.874 | > 21.2 | – | CC(C)n1nc(C(=O)NCc2ccc(NC(=O)N(C)C)cc2)c2c1[C@@H](C)CN(c1ccc(C(=O)O)cn1)C2 [Example 504, (S)-6-(3-((4-(3,3-dimethylureido)benzyl)carbamoyl)-1-isopropyl-7-methyl-1,4,6,7-tetrahydro-5H-pyrazolo[4,3-c]pyridin-5-yl)nicotinic acid]
4 | 0.24 | 2.51 | – | CCn1nc(C(=O)NCc2ccc(NC(=O)N(C)C)cc2)c2c1CCN(c1ccc(C(=O)N(C)C)cn1)[C@H]2C [Example 512, (S)-5-(5-(dimethylcarbamoyl)pyridin-2-yl)-N-(4-(3,3-dimethylureido)benzyl)-1-ethyl-4-methyl-4,5,6,7-tetrahydro-1H-pyrazolo[4,3-c]pyridine-3-carboxamide]
5 | 0.003 | 0.018 | – | CCn1nc(C(=O)NCc2ccc(NC(=O)N(C)C)cc2)c2c1CCN(c1ccc(C(=O)N(C)C)cn1)[C@@H]2C [Example 513, (R)-5-(5-(dimethylcarbamoyl)pyridin-2-yl)-N-(4-(3,3-dimethylureido)benzyl)-1-ethyl-4-methyl-4,5,6,7-tetrahydro-1H-pyrazolo[4,3-c]pyridine-3-carboxamide]
6 | 0.001 | 0.005 | – | CC(C)n1nc(C(=O)NCc2ccc(NC(N)=O)cc2)c2c1[C@@H](C)CN(c1ccc(-c3nccn3C)cn1)C2 [Example 516, (S)-1-isopropyl-7-methyl-5-(5-(1-methyl-1H-imidazol-2-yl)pyridin-2-yl)-N-(4-ureidobenzyl)-4,5,6,7-tetrahydro-1H-pyrazolo[4,3-c]pyridine-3-carboxamide]
7 | 0.009 | 0.033 | – | CC(C)n1nc(C(=O)NCc2ccc(C(N)=O)cc2)c2c1[C@@H](C)CN(c1ccc(N3CCOC3=O)cn1)C2 [Example 517, (S)-N-(4-carbamoylbenzyl)-1-isopropyl-7-methyl-5-(5-(2-oxooxazolidin-3-yl)pyridin-2-yl)-4,5,6,7-tetrahydro-1H-pyrazolo[4,3-c]pyridine-3-carboxamide]
8 | 0.002 | 0.071 | – | Cc1c[nH]c(-c2ccc(CNC(=O)c3nn(C(C)C)c4c3CN(c3ccc(N5CCOC5=O)cn3)C[C@@H]4C)cc2)n1 [Example 518, (S)-1-isopropyl-7-methyl-N-(4-(4-methyl-1H-imidazol-2-yl)benzyl)-5-(5-(2-oxooxazolidin-3-yl)pyridin-2-yl)-4,5,6,7-tetrahydro-1H-pyrazolo[4,3-c]pyridine-3-carboxamide]
9 | 0.008 | 0.219 | – | Cc1c[nH]c(-c2ccc(CNC(=O)c3nn(C(C)C)c4c3CN(c3ncc(N5CCOC5=O)cn3)C[C@@H]4C)cc2)n1 [Example 519, (S)-1-isopropyl-7-methyl-N-(4-(4-methyl-1H-imidazol-2-yl)benzyl)-5-(5-(2-oxooxazolidin-3-yl)pyrimidin-2-yl)-4,5,6,7-tetrahydro-1H-pyrazolo[4,3-c]pyridine-3-carboxamide]
10 | 0.001 | 0.022 | – | CNC(=O)Nc1ccc(CNC(=O)c2nn(C(C)C)c3c2CN(c2ccc(N4CCOC4=O)cn2)C[C@@H]3C)cc1 [Example 520, (S)-1-isopropyl-7-methyl-N-(4-(3-methylureido)benzyl)-5-(5-(2-oxooxazolidin-3-yl)pyridin-2-yl)-4,5,6,7-tetrahydro-1H-pyrazolo[4,3-c]pyridine-3-carboxamide]
11 | 0.002 | 0.034 | – | CNC(=O)Nc1ccc(CNC(=O)c2nn(C(C)C)c3c2CN(c2ccc(-n4c(C)nn(C)c4=O)cn2)C[C@@H]3C)cc1 [Example 521, (S)-5-(5-(1,3-dimethyl-5-oxo-1,5-dihydro-4H-1,2,4-triazol-4-yl)pyridin-2-yl)-1-isopropyl-7-methyl-N-(4-(3-methylureido)benzyl)-4,5,6,7-tetrahydro-1H-pyrazolo[4,3-c]pyridine-3-carboxamide]
12 | 0.002 | 0.007 | – | CC(C)n1nc(C(=O)NCc2ccc(NC(=O)N3CCNCC3)cc2)c2c1[C@@H](C)CN(c1ccc(C(=O)N(C)C)cc1)C2 [Example 525, (S)-5-(4-(dimethylcarbamoyl)phenyl)-1-isopropyl-7-methyl-N-(4-(piperazine-1-carboxamido)benzyl)-4,5,6,7-tetrahydro-1H-pyrazolo[4,3-c]pyridine-3-carboxamide]
13 | 4.01 | 2.04 | – | CNC(=O)Nc1ccc(CNC(=O)c2n[nH]c3c2CN(c2ccc(C(=O)N(C)C)cn2)CC3)cc1 [Example 526, 5-(5-(dimethylcarbamoyl)pyridin-2-yl)-N-(4-(3-methylureido)benzyl)-4,5,6,7-tetrahydro-1H-pyrazolo[4,3-c]pyridine-3-carboxamide]
14 | 0.0002 | – | 0.006 | CC(C)n1nc(C(=O)NCc2ccc(NC(=O)N(C)C)cc2)c2c1[C@@H](C)CN(c1ccc(N3CCCC3=O)cn1)C2 [Example 530, (S)—N-(4-(3,3-Dimethylureido)benzyl)-1-isopropyl-7-methyl-5-(5-(2-oxopyrrolidin-1-yl)pyridin-2-yl)-4,5,6,7-tetrahydro-1H-pyrazolo[4,3-c]pyridine-3-carboxamide]
15 | 0.005 | – | 0.018 | CC(C)n1nc(C(=O)NCc2ccc(NC(=O)N(C)C)cn2)c2c1C[C@H](C)N(c1ncc(C(=O)N(C)C)cn1)C2 [Example 533, (S)-5-(5-(dimethylcarbamoyl)pyrimidin-2-yl)-N-((5-(3,3-dimethylureido)pyridin-2-yl)methyl)-1-isopropyl-6-methyl-4,5,6,7-tetrahydro-1H-pyrazolo[4,3-c]pyridine-3-carboxamide]
16 | 0.033 | – | 0.155 | CNC(=O)c1ccc(CNC(=O)c2nn(C(C)C)c3c2CN(c2ncc(C(=O)N(C)C)cn2)[C@@H](C)C3)cc1 [Example 534, (S)-5-(5-(dimethylcarbamoyl)pyrimidin-2-yl)-1-isopropyl-6-methyl-N-(4-(methylcarbamoyl)benzyl)-4,5,6,7-tetrahydro-1H-pyrazolo[4,3-c]pyridine-3-carboxamide]
17 | 0.005 | – | 0.013 | CC(C)n1nc(C(=O)NCc2ccc(NC(=O)N(C)C)cn2)c2c1C[C@H](C)N(c1ccc(C(=O)N(C)C)cn1)C2 [Example 535, (S)-5-(5-(dimethylcarbamoyl)pyridin-2-yl)-N-((5-(3,3-dimethylureido)pyridin-2-yl)methyl)-1-isopropyl-6-methyl-4,5,6,7-tetrahydro-1H-pyrazolo[4,3-c]pyridine-3-carboxamide]
18 | 0.004 | – | 0.031 | CC(C)n1nc(C(=O)NCc2ccc(-c3ncc[nH]3)cc2)c2c1C[C@H](C)N(c1ccc(C(=O)N(C)C)cn1)C2 [Example 536, (S)-N-(4-(1H-imidazol-2-yl)benzyl)-5-(5-(dimethylcarbamoyl)pyridin-2-yl)-1-isopropyl-6-methyl-4,5,6,7-tetrahydro-1H-pyrazolo[4,3-c]pyridine-3-carboxamide]
19 | 0.027 | – | 0.076 | CNC(=O)c1ccc(CNC(=O)c2nn(C(C)C)c3c2CN(c2ccc(C(=O)N(C)C)cn2)[C@@H](C)C3)cc1 [Example 540, (S)-5-(5-(dimethylcarbamoyl)pyridin-2-yl)-1-isopropyl-6-methyl-N-(4-(methylcarbamoyl)benzyl)-4,5,6,7-tetrahydro-1H-pyrazolo[4,3-c]pyridine-3-carboxamide]
